Measurements published in patent US20250115597A1, “TYK2 INHIBITORS AND COMPOSITIONS AND METHODS THEREOF” (LYNK PHARMACEUTICALS CO. LTD., priority 2021, published 2025).
Like-named read-outs stand apart in the source and are kept apart here.

How the values were obtained:
[1] = molecular target: T1, Ba/F3-FL-TYK2-P760L cells (Homo sapiens, UniProt P29597, P760L, cells depend on it); experiment: Anti-proliferative assay, Ba/F3-FL-TYK2-P760L cells (Cell-Titer Glo); format: cell-based; conditions: 72 h, read-out: BaF3-FL-T2P760L IC50
T1 construct: BaF3-FL-T2P760L (nM)
T1 sequence (P29597 whole entry P760L): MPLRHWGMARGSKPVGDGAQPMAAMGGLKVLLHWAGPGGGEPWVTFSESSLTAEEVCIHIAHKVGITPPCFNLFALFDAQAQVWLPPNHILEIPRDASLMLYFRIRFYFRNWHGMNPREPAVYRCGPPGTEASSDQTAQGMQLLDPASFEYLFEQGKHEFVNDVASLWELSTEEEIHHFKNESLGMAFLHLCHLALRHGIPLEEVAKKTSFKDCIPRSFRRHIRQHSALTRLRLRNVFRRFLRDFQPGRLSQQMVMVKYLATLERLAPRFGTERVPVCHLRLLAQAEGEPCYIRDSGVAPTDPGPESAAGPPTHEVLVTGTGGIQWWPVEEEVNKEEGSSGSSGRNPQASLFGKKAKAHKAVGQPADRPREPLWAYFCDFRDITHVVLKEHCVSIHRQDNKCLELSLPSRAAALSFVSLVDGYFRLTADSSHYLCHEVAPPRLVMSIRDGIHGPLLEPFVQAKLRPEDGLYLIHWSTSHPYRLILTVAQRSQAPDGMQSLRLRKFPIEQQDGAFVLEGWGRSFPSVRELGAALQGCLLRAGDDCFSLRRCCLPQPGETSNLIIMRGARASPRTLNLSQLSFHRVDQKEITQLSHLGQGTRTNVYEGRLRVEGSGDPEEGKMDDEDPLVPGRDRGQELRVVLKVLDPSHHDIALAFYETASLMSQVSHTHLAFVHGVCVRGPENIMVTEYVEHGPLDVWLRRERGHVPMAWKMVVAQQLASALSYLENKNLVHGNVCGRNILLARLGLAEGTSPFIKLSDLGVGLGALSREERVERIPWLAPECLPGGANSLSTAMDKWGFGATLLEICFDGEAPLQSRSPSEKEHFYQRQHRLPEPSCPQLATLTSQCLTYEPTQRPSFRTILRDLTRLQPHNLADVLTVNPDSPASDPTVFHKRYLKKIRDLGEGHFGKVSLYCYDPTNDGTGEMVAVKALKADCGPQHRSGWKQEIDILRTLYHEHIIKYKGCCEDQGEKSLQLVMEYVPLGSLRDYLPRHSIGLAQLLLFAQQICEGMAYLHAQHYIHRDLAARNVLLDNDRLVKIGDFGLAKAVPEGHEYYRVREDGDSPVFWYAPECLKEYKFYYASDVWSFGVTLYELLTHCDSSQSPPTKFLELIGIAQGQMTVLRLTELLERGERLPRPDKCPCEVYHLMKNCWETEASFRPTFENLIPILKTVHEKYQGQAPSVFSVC
Outline: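 Ba/F3 cells made IL-3-independent by TEL-fused or full-length mutant JAK-family kinases, seeded at 2000/well and dosed after 24 h with 9 three-fold dilutions topping at 20 μM. Viability after 72 h at 37 °C, 5% CO2 by Cell-Titer Glo ATP luminescence.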

JAK2 = molecular target: T2, JAK2 (Homo sapiens, UniProt O60674); experiment: JAK2 kinase activity, microfluidic assay (Caliper EZ Reader II); format: biochemical; conditions: JAK2 0.125 nM, 1 mM ATP
T2 construct: purchased Carna Biosciences
T2 sequence (O60674 whole entry): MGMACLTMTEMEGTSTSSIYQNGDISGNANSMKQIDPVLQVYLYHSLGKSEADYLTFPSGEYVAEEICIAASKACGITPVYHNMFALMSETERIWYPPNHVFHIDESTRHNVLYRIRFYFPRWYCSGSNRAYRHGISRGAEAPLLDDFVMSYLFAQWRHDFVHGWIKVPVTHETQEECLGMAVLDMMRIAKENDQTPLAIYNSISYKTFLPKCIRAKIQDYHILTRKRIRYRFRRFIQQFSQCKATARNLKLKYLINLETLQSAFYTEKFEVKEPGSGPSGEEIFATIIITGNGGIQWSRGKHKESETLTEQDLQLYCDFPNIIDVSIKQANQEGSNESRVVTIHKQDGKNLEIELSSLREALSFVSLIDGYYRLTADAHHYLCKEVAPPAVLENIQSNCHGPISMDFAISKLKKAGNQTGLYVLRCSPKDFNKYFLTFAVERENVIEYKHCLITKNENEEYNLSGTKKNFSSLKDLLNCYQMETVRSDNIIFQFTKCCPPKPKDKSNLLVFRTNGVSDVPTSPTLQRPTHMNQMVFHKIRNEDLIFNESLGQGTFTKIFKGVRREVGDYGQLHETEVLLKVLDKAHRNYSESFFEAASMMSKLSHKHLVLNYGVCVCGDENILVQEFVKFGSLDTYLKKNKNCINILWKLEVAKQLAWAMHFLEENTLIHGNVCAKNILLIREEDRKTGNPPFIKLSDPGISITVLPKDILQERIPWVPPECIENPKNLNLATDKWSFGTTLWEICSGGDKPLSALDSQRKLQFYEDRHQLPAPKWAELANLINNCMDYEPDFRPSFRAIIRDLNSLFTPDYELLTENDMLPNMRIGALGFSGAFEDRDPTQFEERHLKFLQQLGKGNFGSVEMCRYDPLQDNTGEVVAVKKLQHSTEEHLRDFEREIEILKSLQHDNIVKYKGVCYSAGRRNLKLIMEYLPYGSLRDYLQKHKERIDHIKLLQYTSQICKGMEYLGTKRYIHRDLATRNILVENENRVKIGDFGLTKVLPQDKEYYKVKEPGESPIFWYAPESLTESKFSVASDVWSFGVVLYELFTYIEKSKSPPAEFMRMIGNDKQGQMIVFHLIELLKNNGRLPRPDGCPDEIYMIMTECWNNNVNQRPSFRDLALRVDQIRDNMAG
Outline: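 Human JAK1, JAK2 or TYK2 enzyme was used in 50 mM HEPES, 10 mM MgCl2, 2 mM DTT and 0.01% Brij35, tuned to 10% conversion of a FAM-labelled peptide. Threefold dilutions of compound (top 5 µM, 1% DMSO) were pre-incubated with enzyme for 10 min, and reactions were stopped with EDTA. Phosphorylation was read by microfluidic mobility shift, and IC50 came from percent-inhibition curves.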

JAK1-JH2 domain = molecular target: T3, JAK1-JH2 domain (Homo sapiens, UniProt P23458); experiment: Binding activity test for JH2 domain of JAK1 (Tb-antibody/tracer FRET)
T3 construct: IC50 on JH2 domain activity (nM)
T3 sequence (P23458 583-855 limits assumed): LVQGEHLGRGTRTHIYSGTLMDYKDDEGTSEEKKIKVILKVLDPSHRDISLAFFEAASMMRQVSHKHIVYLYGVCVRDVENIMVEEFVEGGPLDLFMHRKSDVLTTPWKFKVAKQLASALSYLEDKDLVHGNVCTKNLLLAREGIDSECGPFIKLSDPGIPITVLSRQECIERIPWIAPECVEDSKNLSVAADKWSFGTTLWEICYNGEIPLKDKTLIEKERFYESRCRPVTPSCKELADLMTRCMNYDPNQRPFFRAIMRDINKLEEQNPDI
Outline: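 Compounds tested as 11-point 3-fold serial dilutions against the JH2 domain in a Tb-antibody/tracer FRET binding format. Plates incubated 60 min at 25° C, then overnight at 4° C, before FRET reading.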

[2] = Plasma protein binding by equilibrium dialysis; format: in vitro ADME; conditions: human plasma, equilibrium dialysis 5 hours at 37° C.; read-out: % Bound (human) (converted)
Outline: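 Compound spiked into plasma at 0.2 and 2 μM was dialyzed against PBS for 5 h at 37° C with shaking, in duplicate. Plasma and buffer chambers were matrix-matched, protein-precipitated and analysed by LC-MS/MS to derive % unbound, % bound and % recovery.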

[3] = Microsomal metabolic stability assay; format: in vitro ADME; conditions: pH 7.4, 0.5 mg/mL protein, 1 μM compound
Outline: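 Test article at 1 μM with 0.5 mg/mL microsomal protein and 2 mM NADPH, in 100 mM potassium phosphate pH 7.4 with 1.0 mM EDTA at 37 °C. Sampled at 0–45 min and quantified by LC/MS/MS. T1/2 from the slope of ln % remaining vs time.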

[4] = dog liver microsomes, read-out: Dog LM Clint
[5] = dog liver microsomes, read-out: Dog LM T½
[6] = human liver microsomes, read-out: Human LM Clint
[7] = human liver microsomes, read-out: Human LM T½
[8] = rat liver microsomes, read-out: Rat LM Clint
[9] = rat liver microsomes, read-out: Rat LM T½

| SMILES | GI50 [1] | IC50 (JAK2) | IC50 (JAK1-JH2 domain) | fraction unbound at 5 h [2] | microsomal CLint at 1 μM [3, 4] | half-life at 1 μM [3, 5] | microsomal CLint at 1 μM [3, 6] | half-life at 1 μM [3, 7] | microsomal CLint at 1 μM [3, 8] | half-life at 1 μM [3, 9] |
| --- | --- | --- | --- | --- | --- | --- | --- | --- | --- | --- |
| [2H]C([2H])([2H])NC(=O)c1cnc(NC(=O)C2CC2)cc1Nc1ccn2ncc(C#N)c2c1OC [Example 165, 4-((3-Cyano-4-methoxypyrazolo[1,5-a]pyridin-5-yl)amino)-6-(cyclopropanecarboxamido)-N-(methyl-d3)nicotinamide] | 98.2 nM | > 5000 nM | 18.6 nM | 0.107 | 14.3 µL/min/mg | 99.7 min | 36.9 µL/min/mg | 38 min | 43.6 µL/min/mg | 32 min |
| [2H]C([2H])([2H])NC(=O)c1cnc(NC(=O)C2CC2)cc1Nc1ncc2cnn(CC)c2c1OC [Example 262, 6-(Cyclopropanecarboxamido)-4-((1-ethyl-7-methoxy-1H-pyrazolo[4,3-c]pyridin-6-yl)amino)-N-(methyl-d3)nicotinamide] | 41.6 nM | > 5000 nM | 14.8 nM | 0.124 |  |  |  |  |  |  |
| [2H]C([2H])([2H])NC(=O)c1cnc(Nc2ccc(F)cn2)cc1Nc1nn(C)c2ccn(CC)c(=O)c12 [Example 139, 4-((5-Ethyl-1-methyl-4-oxo-4,5-dihydro-1H-pyrazolo[4,3-c]pyridin-3-yl)amino)-6-((5-fluoropyridin-2-yl)amino)-N-(methyl-d3)nicotinamide] | 33.1 nM |  | 12.4 nM | 0.039 |  |  | 23.3 µL/min/mg | 59.8 min |  |  |
| [2H]C([2H])([2H])NC(=O)c1cnc(NC(=O)C2CC2)cc1Nc1ccc2cnn(CC(F)(F)F)c2c1OC [Example 129, 6-(Cyclopropanecarboxamido)-4-((7-methoxy-1-(2,2,2-trifluoroethyl)-1H-indazol-6-yl)amino)-N-(methyl-d3)nicotinamide] | 69.3 nM |  | 20.8 nM | 0.034 | 48.6 µL/min/mg | 28.5 min | 40 µL/min/mg | 34.6 min | 87.4 µL/min/mg | 15.9 min |
| [2H]C([2H])([2H])NC(=O)c1cnc(NC(=O)C2CC2)cc1Nc1ccc2cnn(CC)c2c1OC [Example 44, 6-(Cyclopropanecarboxamido)-4-((1-ethyl-7-methoxy-1H-indazol-6-yl)amino)-N-(methyl-d3)nicotinamide] | 56.2 nM | > 5000 nM | 9.89 nM | 0.068 | 66.8 µL/min/mg | 20.7 min | 19.4 µL/min/mg | 71.5 min | 111 µL/min/mg | 12.5 min |
